From ChEMBL document CHEMBL1921746, “Chemical constituents of the rhizomes of Hedychium coronarium and their inhibitory effect on the pro-inflammatory cytokines production LPS-stimulated in bone marrow-derived dendritic cells” (Bioorg Med Chem Lett, 2011)
pIC50: −log10 of the molar value. Activity calls are given as the source filed them. The rule behind the calls is not given here.

Legend:
BMDC [1] = assay: Antiinflammatory activity in C57BL/6 mouse BMDC assessed as inhibition of LPS-stimulated TNF-alpha production up to 50 uM preincubated for 1 hr before LPS-stimulation measured after 16 hrs by ELISA; assay type: functional
BMDC [2] = assay: Antiinflammatory activity in C57BL/6 mouse BMDC assessed as inhibition of LPS-stimulated IL-6 production up to 50 uM preincubated for 1 hr before LPS-stimulation measured after 16 hrs by ELISA; assay type: functional
BMDC [3] = assay: Antiinflammatory activity in C57BL/6 mouse BMDC assessed as inhibition of LPS-stimulated IL-12p40 production up to 50 uM preincubated for 1 hr before LPS-stimulation measured after 16 hrs by ELISA; assay type: functional
[4] = Cytotoxicity against C57BL/6 mouse BMDC assessed as reduction of cell viability by MTT assay
[5] = Antiinflammatory activity in C57BL/6 mouse BMDC assessed as inhibition of LPS-stimulated TNF-alpha production preincubated for 1 hr before LPS-stimulation measured after 16 hrs by ELISA; assay type: functional
[6] = Antiinflammatory activity in C57BL/6 mouse BMDC assessed as inhibition of LPS-stimulated IL-6 production preincubated for 1 hr before LPS-stimulation measured after 16 hrs by ELISA; assay type: functional
[7] = Antiinflammatory activity in C57BL/6 mouse BMDC assessed as inhibition of LPS-stimulated IL-12p40 production preincubated for 1 hr before LPS-stimulation measured after 16 hrs by ELISA; assay type: functional

SMILES	inhibition (BMDC [1])	inhibition (BMDC [2])	inhibition (BMDC [3])	Activity [4]	pIC50 [5]	pIC50 [6]	pIC50 [7]
C=C[C@@](C)(O)CC/C=C(\C)CCC=C(C)C	inactive	inactive	inactive	–	–	–	–
CC[C@H](/C=C/[C@@H](C)[C@H]1CC[C@H]2[C@@H]3CC=C4C[C@@H](O)CC[C@]4(C)[C@H]3CC[C@]12C)C(C)C	inactive	inactive	inactive	–	–	–	–
CC[C@H](CC[C@@H](C)[C@H]1CC[C@H]2[C@@H]3CC=C4C[C@@H](O)CC[C@]4(C)[C@H]3CC[C@]12C)C(C)C	inactive	inactive	inactive	–	–	–	–
CC[C@H](CC[C@@H](C)[C@H]1CC[C@H]2[C@@H]3CC=C4C[C@@H](O[C@@H]5O[C@H](CO)[C@@H](O)[C@H](O)[C@H]5O)CC[C@]4(C)[C@H]3CC[C@]12C)C(C)C	inactive	inactive	inactive	–	–	–	–
C=C1CC[C@H]2C(C)(C)CCC[C@]2(C)[C@H]1C/C=C1/CC(OC)OC1=O (some centres not stated) [CORONARIN D METHYL ETHER]	–	–	–	Toxic	–	–	–
C=C1CC[C@H]2C(C)(C)CCC[C@]2(C)[C@H]1C/C=C1/CC(O)OC1=O (some centres not stated) [CORONARIN D]	–	–	–	–	4.38	–	–
C=C1CC[C@H]2C(C)(C)CCC[C@]2(C)[C@H]1CCC1=CC(OC)OC1=O (some centres not stated) [CORONARIN G]	–	–	–	–	4.90	5.12	5.18
CC1(C)CCC[C@]2(C)[C@H]3C/C=C(/C=O)CC(O)CC3=CC(=O)[C@@H]12 (some centres not stated) [CORONARIN H]	–	–	–	–	4.57	5.05	5.10
C=C1[C@@H](O)C[C@H]2C(C)(C)[C@@H](O)CC[C@]2(C)[C@H]1C/C=C1/COCC1O (some centres not stated) [CORONARIN I]	–	–	–	Toxic	–	–	–
C=C1[C@@H](O)C[C@H]2C(C)(C)CCC[C@]2(C)[C@H]1/C=C/C1=CC(=O)OC1O (some centres not stated) [HEDYFORRESTIN C]	–	–	–	–	4.98	5.47	6.72
C[S+]([O-])c1ccc(-c2nc(-c3ccc(F)cc3)c(-c3ccncc3)[nH]2)cc1 (configuration not stated) [SB-203580]	–	–	–	–	5.14	5.45	5.30
